Test results: US11904040B2, “Zinc-amino acid-lauryl sulfate complex with antimicrobial activity” (Colgate-Palmolive Company, priority 2018, dated 2024)

Tests used:
[1] = test system: S. mutans; experiment: Metabolic inhibition of S. mutans (autotitrator base consumption after glucose); format: cell-based; settings: for % Metabolic Reduction: S. mutans in 135 mM KCl, final zinc concentration 2.5 ppm (SLS equimolar to LS in Zn(Lys)2(LS)2), pH 7, 30 minutes, vs control containing only bacteria
Procedure: The chelation of zinc can modify its efficacy as an antibacterial agent. […] S. mutans is one of the prevalent bacteria present in the oral cavity. A concentrated suspension of S. mutans in 135 mM KCl was treated with a known concentration of zinc salt to obtain a final zinc concentration of 2.5 ppm. […] Using an autotitrator (Methrom Titrando 902) equipped with a 0.01M solution of KOH, the bacterial suspension was equilibrated to pH=7. After equilibrating, glucose was added to the solution. The autotitrator maintained the pH at 7 through the precise addition of KOH solution. The experiment was allowed to proceed for 30 minutes and the volume of base added was recorded at 10 second intervals. After 30 mins, a growth curve of base addition over time was obtained. The area under this curve was compared to the area under the curve for a control sample containing only bacteria and used to calculate a % reduction value. The control sample was analyzed from the same bacterial suspension as the test sample and the two samples were analyzed within 3 hours of each other. In order for data from a given suspension of S. mutans to be included, the control sample must consume at least 5 mL of base solution during the 30 minute time period.

[2] = Potentiometric titration, stability constants of the Zn, Lysine, SLS system; settings: 25C, 50:50 glycerin:de-ionized water, 100 mM KNO3, 5 mM Zn

Row | Molecule | % Metabolic Reduction [1] | antibacterial performance compared to corresponding zinc-amino acid complex ([1]; S. mutans metabolic reduction, Table 10) | Log(B) stability constant [2]
1 | zinc-arginine-lauryl sulfate [Zn(Arg)2(LS)2] | 72.53 ± 3.76% | directionally improved antibacterial performance compared to [Zn(Arg)2]^2+ | 
2 | CCCCCCCCCCCCOS(=O)(=O)[O-].[Na+] [Sodium lauryl sulfate, sodium lauryl sulfate] | 34.12 ± 1.56% |  | 
3 | zinc arginate [[Zn(Arg)2]^2+] | 67.19 ± 0.32% |  | 
4 | O=[N+]([O-])[O-].O=[N+]([O-])[O-].[Zn+2] [Zn(NO3)2] | 67.16 ± 2.49% |  | 
5 | NCCCCC(N)C(=O)O.NCCCCC(N)C(=O)O.[Cl-].[Cl-].[Zn+2] (stereo not shown) [ZLC, [Zn(C6H14N2O2)2Cl]^+Cl^−] | 53.90 ± 2.36% |  | 
6 | NCCCC[C@H](N)C(=O)O [HLys] |  |  | 10.07
